Results: patent publication US20070190628A1, “Yeast food composition for fuel ethanol production” (priority 2006, published 2007)

What was measured:
active dry yeast “z” [1] = assay: EVOP optimization of phosphorus and sulfur concentrations for fermentation rate in corn mash; type: cell-based, Saccharomyces cerevisiae; conditions: combined with 16 mM urea, 0.049 g/L MgSO4.7H2O and 0.273 mg/L ZnSO4.7H2O
Description: The Evolution Operation Method (EVOP) described by Box et al, (1969, Evolutionary Operation: A Statistical Method for Process Improvement, John Wiley & Sons, NY, N.Y.) was used to optimize the concentrations of phosphorus and sulfur combined with urea, magnesium and zinc for increasing fermentation rates in corn mash.
Multiple sterile 2-L Celstir® fermentors were each filled with 1 L of corn mash supplemented with 16 mM urea, 0.049 g/L MgSO4.7H2O, and 0.273 mg/L ZnSO4.7H2O. The active dry yeast “z” was used as the inoculum in this study. The EVOP testing was conducted by using the “low” concentration values of phosphorus and sulfur (0.8 g/L (NH4)2HPO4 and 0.16 g/L (NH4)2SO4) from Table 1 as the center points for assessing 4 additional phosphorus and sulphur concentrations around these points for their effects on fermentation rates. If the response of a particular point around the center point was significant, then this particular point became the new center point and 4 new concentration values would be examined as described by Box et al (1969). […] Fermentation rates were determined by repeated sampling and sample processing at specific time intervals as described in Example 1.

active dry yeast “z” [2] = assay: Individual nutritive elements added to normal gravity corn mash: fermentation rate and viable cell numbers; type: cell-based, Saccharomyces cerevisiae
Description: Normal gravity corn mash was prepared using ground #2 yellow dent corn obtained from Commercial Alcohols Inc. (275 Bloomfield Road, Chatham, Ontario, Canada N7M 5J5). […] One part by weight of ground corn was dispersed into three parts of 50° C., sterile dH2O containing 1 mM CaCl2.2H2O. To minimize the development of excessive viscosity during gelatinization, 1.25 mL of high temperature (HT-2X) α-amylase such as was supplied by Alltech Inc. in Nicholasville, Ky., USA (HT-2X α-amylase is no longer available from Alltech), was added per litre of mash as the ground corn was dispersed. It should be noted that if Ca-independent alpha amylases are used such as Termamyl® SC supplied by Novozymes North America in Franklinton, N.C., USA, then the 1 mM CaCl2.2H2O is not required. Following the addition of the ground corn and a five-minute mixing period to produce a homogenous mixture, the temperature was increased until the mash reached 94° C. where it was held at this temperature for 60 min with continued stirring. The temperature of the gelatinized starch was then reduced to 80° C. and liquefied by a second dose of HT-2X αx-amylase (1.25 mL/L) with continued stirring for 30 min. Sterile Celstir® (Wheaton Scientific, Millville, N.J.) fermentor vessels were filled with 1 L aliquots of this mash. To each fermentor vessel, filter-sterilized (25 mm, 0.2 μm Acrodisc® syringe filter, Pall Corporation, Ann Arbor, Mich.) urea (Fisher Scientific, Co., NJ), was added to achieve a final concentration of 8 mM. Cold-sterilization of the mash was assured by the addition of 100 μL of diethyl pyrocarbonate (DEPC, Sigma Chemical Co.) per litre of mash mixing the mash mechanically (IKA-Labortechnik, Staufen, Germany) for 5-10 min followed by cooling the fermentor vessels at 4° C. cold room for ˜72 hrs. The fermentor vessels were then removed from the cold room, connected to 30° C. water bath circulators and mixed. Glucoamylase in the form of Allcholase II 400 supplied by Alltech Inc. was then added (1.5 mL/L mash) 30 min prior to yeast inoculation to initiate saccharification of the dextrins formed during gelatinization and liquefaction (it should be noted that Allcholase II 400 is no longer available and any glucoamylase may be used). The mash thus prepared contained 19-20 g of dissolved solids/100 mL of mash as determined by a digital density meter analyzer (model DMA-45, Anton Paar KG, Graz, Austria) maintained at 20° C.
Eleven grams of a commercially available active dry yeast, designated as “z”, were rehydrated by dispersal in 99 mL of preheated 38° C., 0.1% (w/v) sterile water and incubation for 20 min with periodic shaking in a 38° C. water bath. Fermentor vessels containing normal density corn mash were prepared as described above and inoculated with sufficient active yeast to provide an initial viable cell count of 1×10^7 cells per mL mash. The optimal fermentation temperature for the active dry yeast “z” was determined by conducting fermentations at 30°, 34°, 36°, 38°, and 40° C.
The effects of individual elements on yeast cell biomass production and fermentation in a fermentation feedstock were assessed by separately supplementing of corn mash with nitrogen, phosphorus, magnesium, sulphur and zinc. Nitrogen effects were assessed in corn mashes by the additions of urea to provide final concentrations in the mash of […]. Phosphorus effects were assessed in corn mashes amended with 16 mM urea, by the additions of (NH4)2HPO4 (BDH Chemicals Inc, Toronto, Ont., MW: 132.06) to provide final concentrations of 0, 0.1, 0.2, 0.4, 0.6, and 0.8 g of (NH4)2HPO4/L of mash. Magnesium effects were assessed in corn mashes amended with 16 mM urea, by the additions of MgSO4.7H2O (BDH Chemicals Inc., MW. 246.48) to provide final concentrations of 0, 0.025, 0.049, 0.074, 0.099, 0.148, 0.197 g of MgSO4.7H2O/L of mash. […]

[3] = (NH4)2HPO4 above 0.4 g/L, mash with 16 mM urea
[4] = ZnSO4.7H2O 0.287 mg/L to 2.30 mg/L (1 to 8 μM), mash with 16 mM urea

SMILES: N.N.O=P(O)(O)O [(NH4)2HPO4]
- optimal concentration for supplementing corn mash (active dry yeast “z” [1]): 1.6 g/L
- effect on rates of dissolved solids utilization (active dry yeast “z” [2]; 0.1 g/L to 0.4 g/L (NH4)2HPO4, mash with 16 mM urea): significantly increased
- effect on cell yields (active dry yeast “z” [2]; [3]): decreased cell yields
- effect on fermentation rates (active dry yeast “z” [2]; [3]): decreased fermentation rates

SMILES: N.N.O=S(=O)(O)O [(NH4)2SO4]
- optimal concentration for supplementing corn mash (active dry yeast “z” [1]): 0.32 g/L
- effect on the rate of fermentation (active dry yeast “z” [2]; (NH4)2SO4 above 0.04 g/L, mash with 16 mM urea): did not further benefit
- yeast cell yields (active dry yeast “z” [2]; (NH4)2SO4 above 0.04 g/L, mash with 16 mM urea, increased from 3.3×10^8/mL): 4e+08 mL⁻¹

SMILES: O.O.O.O.O.O.O.O=S(=O)([O-])[O-].[Mg+2] [MgSO4.7H2O]
- effect on fermentation rate (active dry yeast “z” [2]; MgSO4.7H2O exceeding 0.074 g/L (0.3 mM Mg2+), mash with 16 mM urea): decreased fermentation rate

SMILES: O.O.O.O.O.O.O.O=S(=O)([O-])[O-].[Zn+2] [ZnSO4.7H2O]
- effect on fermentation rates (active dry yeast “z” [2]; [4]): negative effects
- effect on numbers of yeast cells produced (active dry yeast “z” [2]; [4]): negative effects
